Converted amounts (≈) assume the structure as drawn.

A short description of assay [1]: Cytotoxicity against human BC1 cells. The note with it: read-out: ED50 (the source's name). It counts as functional.
Another assay relates to HT. Description: Cytotoxicity against human HT cells. It counts as functional. Conditions: read-out: ED50 (the source's name).
The subject of a further assay is Lu1. Description: Cytotoxicity against human Lu1 cells. It counts as functional. Conditions: read-out: ED50 (the source's name).
Another assay relates to SK-MEL-2. Description: Cytotoxicity against human SK-MEL-2 cells. The assay is classed as functional. Conditions: read-out: ED50 (the source's name).
The next assay concerns Col2. As to the kind of experiment: Cytotoxicity against human Col2 cells. It counts as functional. Conditions: read-out: ED50 (the source's name).
The subject of assay [2] is KB. Description: Cytotoxicity against human KB cells. The assay is classed as functional. The note with it: read-out: ED50 (the source's name).
For assay [3], the system named is KB. As to the kind of experiment: Cytotoxicity against human vinblastine-positive KB cells. It counts as functional. Conditions: read-out: ED50 (the source's name).
Assay [4] deals with KB. Description: Cytotoxicity against human vinblastine-negative KB cells. Conditions: read-out: ED50 (the source's name). It counts as functional.
The subject of a further assay is P388. Description: Cytotoxicity against mouse P388 cells. It counts as functional. Conditions: read-out: ED50 (the source's name).
The subject of a further assay is A-431. As to the kind of experiment: Cytotoxicity against human A431 cells. The note with it: read-out: ED50 (the source's name). The assay is classed as functional.
The test system of the next assay is LNCaP. Description: Cytotoxicity against human LNCAP cells. The assay is classed as functional. The note with it: read-out: ED50 (the source's name).
The test system of another assay is ZR-75-1. As to the kind of experiment: Cytotoxicity against human ZR-75-1 cells. The assay is classed as functional. The note with it: read-out: ED50 (the source's name).
Assay [5] can be described thus: Cytotoxicity against human U373 cells. It counts as functional, U-373MG ATCC. The note with it: U373 MG, read-out: ED50 (the source's name).

Consider `CC(=O)OC/C=C/C1OC1C1OC1C#CC#CC#CCO` (stereo not drawn) [GUMMIFEROL], for which the EC50 in [1] came to 0.2 µg/mL (≈ 0.699 µM); in the assay with HT it was 0.1 µg/mL (≈ 0.349 µM); in the assay on Lu1, 0.9 µg/mL (≈ 3.14 µM); with SK-MEL-2, 1.3 µg/mL (≈ 4.54 µM); with Col2, 0.6 µg/mL (≈ 2.1 µM); in the assay on KB [2], 0.3 µg/mL (≈ 1.05 µM). Moreover, the EC50 was 0.3 µg/mL (≈ 1.05 µM) with KB [3]; 0.4 µg/mL (≈ 1.4 µM) with KB [4]; 0.03 µg/mL (≈ 0.105 µM) in the assay on P388; 0.5 µg/mL (≈ 1.75 µM) in the assay on A-431; 0.2 µg/mL (≈ 0.699 µM) in the assay on LNCaP; 0.2 µg/mL (≈ 0.699 µM) in the assay with ZR-75-1. Besides, the EC50 in [5] amounted to 0.05 µg/mL (≈ 0.175 µM).

Source of the values: ChEMBL document CHEMBL1150085, “Gummiferol, a cytotoxic polyacetylene from the leaves of Adenia gummifera” (1995).
